The subject of data set [1] is Pseudomonas aeruginosa ATCC 27853. Description: In vitro antibacterial activity (MIC), microbroth dilution. Format: cell-based. The note with it: ATCC27853, 37° C., 18 h, read-out: MIC Pseudomonas aeruginosa ATCC 27853. (In general: Dilution methods test growth across graded concentrations, often in twofold steps.)
The subject of data set [2] is Staphylococcus aureus ATCC 29213. Described as above. The format is cell-based. The conditions noted are these: ATCC29213, 37° C., 18 h.
In data set [3] the test system is Escherichia coli ATCC25922. The conditions noted are these: prior art value; cited from earlier work.
Data set [4] concerns Acinetobacter baumannii ATCC 19606. Briefly: In vitro antibacterial activity (MIC), microbroth dilution. Format: cell-based. The note with it: ATCC19606, 37° C., 18 h, read-out: MIC Acinetobacter baumannii ATCC 19606.
Data set [5] deals with Escherichia coli ATCC 35218. Described as above. Format: cell-based. The conditions noted are these: ATCC35218, 37° C., 18 h, read-out: MIC Escherichia coli ATCC 35218.
The test system of data set [6] is Escherichia coli ATCC 25922. Described as above. The format is cell-based. The note with it: ATCC25922, 37° C., 18 h, read-out: MIC Escherichia coli ATCC 25922.
The test system of data set [7] is Escherichia coli ECO+ 15-1. The data set is described as above. The note with it: 37° C., 18 h, read-out: MIC Escherichia coli ECO+ 15-1. The format is cell-based.
For data set [8], the system named is Klebsiella pneumoniae KPN-15-1. The description is as above. The note with it: KPN151, 37° C., 18 h, read-out: MIC Klebsiella pneumoniae KPN-15-1. Format: cell-based.
The subject of data set [9] is Clostridium difficile ATCC 9689. The data set is described as above. The format is cell-based. The conditions noted are these: for MIC: Clostridioides difficile, ATCC9689, read-out: MIC Clostridium difficile ATCC 9689.
The nature of data set [10]: Pharmacokinetic test in mice. The note with it: both sexes, ICR, mouse, po, 150 mg/kg intragastric administration; for half-life: read-out: t½z (half-life period) (converted). Format: in vivo. Here is the method:
(§1) Experimental animals: Beijing Vital River Laboratory Animal Technology Co., Ltd., ICR mice, with a uniform body weight of 20-22 g, and half male and half female.
Experimental scheme: a compound 1 was administered at a dose of 150 mg/kg (Solvents were as follows: saline:Tween 80:DMSO=9:0.5:0.5) by intragastric administration, and samples were taken by orbital blood sampling or a mode of sampling blood by enucleating eyeballs at 10 min, 20 min, 30 min, 1 h, 3 h, 5 h, 8 h, 24 h, 36 h, and 48 h after administration, plasma concentrations were determined by UPLC, a drug concentration-time curve was plotted, and key pharmacokinetic parameters were calculated.

Data set [11] relates to Staphylococcus aureus ATCC 29213. Briefly: In vitro induced drug resistance, 20 generations at sub-MIC. Format: cell-based. The conditions noted are these: ATCC29213, read-out: MIC value after passage for 20 generations. How it is done:
Test method: MIC values of a compound 1 and a control compound DS2969 against Staphylococcus aureus ATCC 29213 were determined by using a microbroth dilution method recommended by operating procedures for antibacterial susceptibility testing of the Clinical and Laboratory Standards Institute (CLSI).
After testing the MIC values, sub-MIC concentrations (1/2 MIC) of bacteria were diluted, and the concentration of the obtained bacterial solution was adjusted to 105 CFU/mL for a next round of MIC value testing. After 24 hours of incubation, bacterial suspensions were prepared by using bacterial suspensions at sub-MIC concentrations of drugs (1/2 MIC), and another MIC testing was performed. This process was repeated for 20 times, and the MIC value for each test was recorded.
The MIC values of the compound 1 and DS2969 inducing Staphylococcus aureus ATCC29213 for 20 generations were recorded, with the number of generations of bacteria induced as an abscissa and the MIC values as an ordinate (as shown in FIG. 1).

Data set [12] deals with Enterococcus faecium EFM 19-1. Briefly: In vitro antibacterial activity (MIC), microbroth dilution. The format is cell-based. The conditions noted are these: EFM191, 37° C., 18 h.
For data set [13], the system named is Enterococcus faecalis ATCC 51575. The description is as above. Format: cell-based. The note with it: ATCC51575, 37° C., 18 h.
Data set [14] relates to Staphylococcus epidermidis ATCC 12228. The data set is described as above. The format is cell-based. The note with it: ATCC12228, 37° C., 18 h.
Data set [15] relates to Staphylococcus aureus ATCC 43300 (MRSA). The data set is described as above. The conditions noted are these: 18 h, read-out: MIC Staphylococcus aureus ATCC 43300 (MRSA). The format is cell-based.
Data set [16] concerns Staphylococcus epidermidis MRSE 15-1. Described as above. Format: cell-based. The conditions noted are these: 37° C., 18 h.
The subject of data set [17] is Staphylococcus aureus ATCC 25923. The data set is described as above. The format is cell-based. The conditions noted are these: ATCC25923, 37° C., 18 h.
Data set [18] deals with Staphylococcus aureus (MRSA, ATCC 43300). Description: Antibacterial activity in mice, sepsis model. The conditions noted are these: MRSA ATCC 43300 sepsis model; for ED50: Staphylococcus aureus, po, intragastric administration at lower dose. Format: in vivo, ICR mice. How it is done: as §1
Model: Sepsis model infected by Staphylococcus aureus (MRSA, ATCC 43300)
Modeling method: mice were infected with […] (diluted with a 5% sterile yeast solution) Staphylococcus aureus (MRSA, ATCC 43300) such that sepsis models of mice were formed (0.5 mL of a bacterial solution was injected intraperitoneally into each mouse).
Experimental scheme: a compound 1 and a positive drug were first dissolved in DMSO, and then diluted with other solvents, wherein a solvent ratio was saline:Tween 80:DMSO=9:0.5:0.5.

Data set [19] deals with Mycobacterium tuberculosis. Description: Activity against Mycobacterium tuberculosis (MIC). The note with it: read-out: Inhibitory activity (MIC) against Mycobacterium tuberculosis. Format: cell-based.
Data set [20] in a line: Acute toxicity test in mice. Format: in vivo.
Description: as §1
In a tail vein administration group, there were 10 mice in each group, with half male and half female. In an intragastric administration group and an intraperitoneal administration group, there were four mice in each group, with half male and half female.

In data set [21] the test system is Staphylococcus aureus MRSA 15-1. Description: In vitro antibacterial activity (MIC), microbroth dilution. The format is cell-based. The conditions noted are these: 37° C., 18 h.
The subject of data set [22] is Staphylococcus aureus ATCC 29213. The note with it: prior art value; cited from earlier work.

Results on 3 compounds are retold here after patent publication US20240351999A1, “PYRROLYLACYLPIPERIDYLAMINE COMPOUND AND USE THEREOF” (INSTITUTE OF MATERIA MEDICA ,CHINESE ACADEMY OF MEDICAL …, priority 2021, published 2024).

≈ marks a conversion by molar mass, not a printed value. Where two headings read alike, the source gives them in different places.

For the compound `COC[C@H](C)NC(=O)c1nc(N2CC[C@@H](NC(=O)c3[nH]c(C)c(Cl)c3Cl)[C@@H](OC)C2)sc1C(=O)O` [AZD5099], the MIC was more than 64 µg/mL in [1]; 0.03 µg/mL (≈ 0.0547 µM) in data set [2]; more than 64 µg/mL in data set [4]; 32 µg/mL (≈ 58.3 µM) in [5]; 32 µg/mL (≈ 58.3 µM) in data set [6]; more than 64 µg/mL in data set [7]. The MIC in data set [8] is more than 64 µg/mL. Moreover, the “MIC Escherichia coli ATCC25922 (background)” value in [3] was 32 µg/mL (≈ 58.3 µM).

Take `CO[C@H]1CN(c2ccc(C(C)(C)O)nn2)CC[C@H]1NC(=O)c1[nH]c(C)c(Cl)c1Cl` [Compound 1, 3,4-dichloro-N-{(3S,4R)-1-[6-(2-hydroxypropan-2-yl)pyridazin-3-yl]-3-methoxypiperidin-4-yl}-5-methyl-IH-pyrrole-2-carboxamide]: the MIC in data set [1] was 4 µg/mL (≈ 9.04 µM); in data set [2], 0.008 µg/mL (≈ 0.0181 µM); in [9], 0.25 µg/mL (≈ 0.565 µM); in [11], less than 1 µg/mL; in data set [12], not above 0.03 µg/mL; in [13], not above 0.03 µg/mL. The MIC in data set [4] was 8 µg/mL (≈ 18.1 µM); in data set [14] it was not above 0.03 µg/mL; in data set [15], not above 0.03 µg/mL; in data set [16] it was not above 0.03 µg/mL; in [17], not above 0.03 µg/mL; in [5], 1 µg/mL (≈ 2.26 µM). For the same compound, the MIC in [6] is 1 µg/mL (≈ 2.26 µM); in data set [7], 8 µg/mL (≈ 18.1 µM); in data set [19], 0.593 µg/mL (≈ 1.34 µM); in [21], not above 0.03 µg/mL; in [8], 8 µg/mL (≈ 18.1 µM). In data set [9] (vs DS2969 and vancomycin), the “Activity against Clostridium difficile compared with controls” value was “stronger than those of DS2969 and the positive control drug vancomycin”. Moreover, in [10] (in vivo, read-out: F (bioavailability)), the bioavailability came to 86%. The half-life in [10] (in vivo) and in data set [10] (plasma) was 552 min throughout. Moreover, the AUC(0-inf) in [10] (plasma) is 933 µg·h/mL. The compound further displayed a Cmax in data set [10] (plasma) of 49400 ng/mL. For the same compound, the Tmax in data set [10] (plasma) is 1 h. In addition, the AUC(0-t) in [10] (plasma, read-out: AUC (0-48)) is 916 µg·h/mL. Further, the MRT last in data set [10] (plasma, read-out: MRT (0-48)) was determined as 16.1 h. Further, the MRT inf in [10] (plasma, read-out: MRT (0-∞)) was determined as 16.9 h. Also, in [18] (50 mg/kg, 1 h after modeling, observed 14 days), the “In vivo antibacterial activity (survival of mice)” value was “significant in vivo antibacterial activity and shows better antibacterial activity than DS2969”. It took a dose of 5 mg/kg to reach the 50% effect level in data set [18] (ED50). For the same compound, the “Survival rate on day 14” value in data set [20] (95 mg/kg by a tail vein) was determined as 60%; in data set [20] (200 mg/kg intraperitoneally) it was 100%; in data set [20] (800 mg/kg by intragastric administration), 75%.

`CCc1[nH]c(C(=O)N[C@@H]2CCN(c3nnc(C(C)(C)O)s3)C[C@@H]2OC)nc1Cl` [DS2969, reference compound]: the MIC is more than 64 µg/mL in data set [1]; 0.5 µg/mL (≈ 1.17 µM) in data set [2]; 0.5 µg/mL (≈ 1.17 µM) in data set [9]; 16 µg/mL (≈ 37.3 µM) in data set [11]; 0.5 µg/mL (≈ 1.17 µM) in [12]; 0.5 µg/mL (≈ 1.17 µM) in data set [13]. Also, the MIC in [4] is more than 64 µg/mL; in [14], 0.5 µg/mL (≈ 1.17 µM); in [15] (37° C.), 0.5 µg/mL (≈ 1.17 µM); in data set [16], 0.5 µg/mL (≈ 1.17 µM); in data set [17], 0.5 µg/mL (≈ 1.17 µM); in data set [5], 32 µg/mL (≈ 74.6 µM). The MIC in [6] is 32 µg/mL (≈ 74.6 µM); in [7], more than 64 µg/mL; in [19], 0.654 µg/mL (≈ 1.52 µM); in data set [21], 0.5 µg/mL (≈ 1.17 µM); in data set [8] it was more than 64 µg/mL. The “MIC Escherichia coli ATCC25922 (background)” value in [3] was 32 µg/mL (≈ 74.6 µM). This compound came in with a median effective dose (ED50) in [18] of more than 10 mg/kg. Moreover, the “MIC Staphylococcus aureus ATCC 29213 (background)” value in data set [22] was 0.2 µg/mL (≈ 0.466 µM).

As a reminder, the bioavailability is dose-corrected exposure relative to a reference, in per cent. Usually half-life stands for how long it takes for the measured level to halve. The term AUC(0-inf) denotes the area under the concentration-time curve extrapolated to infinity. The term Cmax denotes the peak of the concentration-time curve. For orientation: Tmax means the time at which the peak concentration occurs. Usually ED50 stands for the dose at which the effect has come halfway, by size or by number of responders. The low end stands for greater potency, the high end for weaker potency.
